Data reported in US8703106B2, “Chlorine dioxide treatment for biological tissue” (priority 2009, dated 2014).

Columns and labels:
Experiment in all cases: Biofilm kill on ceramic disks, clean system (Example 1)
[1] = system: Pseudomonas aeruginosa (PA) biofilm; assay type: cell-based; details: for Log Reduction in Organism Count: PA
Protocol: (§1) A series of experiments were conducted to estimate the dosage of chlorine dioxide needed to kill bacterial biofilms consisting of Pseudomonas acruginosa (PA), methicillin resistant Staphylococcus aureus (MRSA), or a combination of both.
(§2) Bacterial biofilms were grown for between 7 and 10 days on non-porous ceramic disks in a spinning disk biofilm reactor. The reactors were inoculated with PA, MRSA, or a mixture of MRSA and PA bacteria to produce PA, MRSA, or mixed PA/MRSA biofilms respectively.
(§3) Chlorine dioxide solutions were produced at different nominal concentrations using ASEPTROL S-Tab10 tablets, and the exact concentrations were then measured using a Hach Model 2400 UV/Vis spectrophotometer in accordance with the manufacturer's instructions. Pairs of biofilm-containing disks were immersed for different times in solutions of different chlorine dioxide concentrations, neutralized with dilute sodium thiosul fate solution, and then plated to determine the number of surviving bacteria on each disk. Two untreated disks were also exposed to neutralizing solution and plated to determine the starting bacterial counts. In all tests, the baseline bacterial counts were in the range of 10^7 to 10^7.5 colony-forming units per disk (cfu/disk). A one log reduction refers to reducing the cfu/disk by one order of magnitude, e.g., a reduction from 10^7.1 cfu/disk to 10^6.1 cfu/disk. Accordingly, a substantially complete kill is achieved in the example if the log reduction of bacteria is about 7 to 7.5.
(§4) The results are presented in terms of log reduction of the different bacterial organisms. In the case of mixed PA/MRSA biofilms, results are given as total bacteria.

[2] = system: methicillin resistant Staphylococcus aureus (MRSA) biofilm; assay type: cell-based; details: for Log Reduction in Organism Count: MRSA
Protocol: as §1, §2, §3, §4

mixed PA/MRSA biofilm = assay type: cell-based, Pseudomonas aeruginosa and Staphylococcus aureus; details: for Log Reduction in Organism Count: MRSA + PA, total bacteria
Protocol: as §1, §2, §3, §4

Structure (SMILES): [O][Cl+][O-] [ClO2, chlorine dioxide]
- dosage achieving a kill of about 5 orders of magnitude (5 log) ([1]; PA biofilm, clean system (Sample 7)): greater than 200 ppm-min
- Log Reduction in Organism Count ([1]; Sample 6, 0.5 min, 200 ppm ClO2, 100 ppm-min): 5.9 log
- Log Reduction in Organism Count ([1]; Sample 7, 5.0 min, 43 ppm ClO2, […]-min): 5.7 log
- Log Reduction in Organism Count ([1]; Sample 8, 5.0 min, 187 ppm ClO2, 935 ppm-min): 7.5 log
- Log Reduction in Organism Count ([1]; Sample 9, 10.0 min, 37 ppm ClO2, 370 ppm-min): 7.5 log
- Log Reduction in Organism Count ([1]; Sample 10, 50.0 min, 35 ppm ClO2, 1750 ppm-min): 7.5 log
- Log Reduction in Organism Count ([1]; Sample 11, 50.0 min, 166 ppm ClO2, 8300 ppm-min): 7.5 log
- dosage achieving a kill of about 5 orders of magnitude (5 log) ([2]; MRSA biofilm, clean system (Sample 1)): greater than 200 ppm-min
- Log Reduction in Organism Count ([2]; Sample 1, 1.0 min, 208 ppm ClO2, 208 ppm-min): 5.5 log
- Log Reduction in Organism Count ([2]; Sample 2, 5.0 min, 204 ppm ClO2, 1020 ppm-min): 7.1 log
- Log Reduction in Organism Count ([2]; Sample 3 (second line), 30.0 min, 40 ppm ClO2, 1200 ppm-min): 5.1 log
- Log Reduction in Organism Count ([2]; Sample 3, 10.0 min, 45 ppm ClO2, 450 ppm-min): 5.5 log
- Log Reduction in Organism Count ([2]; Sample 4, 30.0 min, 175 ppm ClO2, 5250 ppm-min): 7.1 log
- Log Reduction in Organism Count (mixed PA/MRSA biofilm; Sample 12, 10.0 min, 52 ppm ClO2, 520 ppm-min): 5.5 log
- Log Reduction in Organism Count (mixed PA/MRSA biofilm; Sample 13, 30.0 min, 52 ppm ClO2, 1560 ppm-min): 7.4 log
- Log Reduction in Organism Count (mixed PA/MRSA biofilm; Sample 14, 1.0 min, 181 ppm ClO2, 181 ppm-min): 5.1 log
- Log Reduction in Organism Count (mixed PA/MRSA biofilm; Sample 15, 5.0 min, 160 ppm ClO2, 800 ppm-min): 7.4 log
- Log Reduction in Organism Count (mixed PA/MRSA biofilm; Sample 16, 30.0 min, 160 ppm ClO2, 4800 ppm-min): 7.4 log
- dosage achieving a kill of about 5 orders of magnitude (5 log) (mixed PA/MRSA biofilm; mixed PA/MRSA biofilm, clean system (Sample 12)): greater than 200 ppm-min
